This is an account of results in patent US9199984B2, “Inhibition of enzymes” (CHIESI FARMACEUTICI S.p.A., priority 2012, dated 2015).

Structures are written as SMILES. Structures can show the parent of a compound that is named as a salt.

In this test the target is T1, human neutrophil elastase (HNE) (Homo sapiens, UniProt P08246).
T1 construct: purchased Sigma E8140
T1 sequence (P08246 30-247 limits assumed): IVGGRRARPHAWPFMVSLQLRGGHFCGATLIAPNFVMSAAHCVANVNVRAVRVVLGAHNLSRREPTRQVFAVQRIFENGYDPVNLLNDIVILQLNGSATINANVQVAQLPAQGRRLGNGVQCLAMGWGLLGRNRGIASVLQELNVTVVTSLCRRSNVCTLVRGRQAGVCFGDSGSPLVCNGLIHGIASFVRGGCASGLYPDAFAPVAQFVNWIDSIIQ
Briefly: HNE enzyme activity assay. It is filed as biochemical. Conditions: human leukocyte elastase, substrate MeOSuc-Ala-Ala-Pro-Val-AMC 100 μM, 25° C. for 30 minutes, fluorescence; read-out: HNE inhibition. How it is done: Compounds of the present invention were tested for potency in a human neutrophil elastase (HNE) enzyme activity assay.
Assays were performed in 96-well plates in a total assay volume of 100 μl. The final concentration of elastase enzyme (human leukocyte elastase, Sigma E8140) was 0.0036 units/well […]. The peptide substrate (MeOSuc-Ala-Ala-Pro-Val-AMC, Calbiochem #324740) was used at a final concentration of 100 μM. The final concentration of DMSO was 1% in the assay buffer (0.05M Tris.HCl, 0.1M NaCl, 0.1M CaCl2, 0.0005% brij-35, pH 7.5). The enzymatic reaction was started by addition of the enzyme and incubated at 25° C. for 30 minutes. After incubation, the reaction was stopped by addition of soybean trypsin inhibitor (Sigma T9003) at a final concentration of 50 μg/well. Fluorescence was measured using a Molecular Devices fluorescence plate reader using 380 nm excitation and 460 nm emission wavelengths.
A dose response to each compound was performed and the effect of compound in each experiment was expressed as a percentage inhibition of the control enzyme fluorescence. Dose response curves were plotted and compound potency (IC50) was determined. Compounds were tested in at least two separate experiments.

For the compound `Cc1c(-c2ccnn2-c2ccc(C#N)cc2)cn2nc(NC(=O)C[N+]3(C)CCN(C)CC3)nc2c1-c1cccc(C(F)(F)F)c1` [Example 25, 1-{[6-[2-(4-Cyano-phenyl)-2H-pyrazol-3-yl]-7-methyl-8-(3-trifluoromethyl-phenyl)-[1,2,4]triazolo[1,5-a]pyridin-2-ylcarbamoyl]-methyl}-1,4-dimethyl-piperazin-1-ium chloride], the IC50 fell in the range of 20 to 100 nM. Turning to `CC(=O)Nc1nc2c(-c3cccc(C(F)(F)F)c3)c(C)c(-c3ccnn3-c3ccc(C#N)cc3)cn2n1` [Example 26, N-[6-[2-(4-Cyano-phenyl)-2H-pyrazol-3-yl]-7-methyl-8-(3-trifluoromethyl-phenyl)-[1,2,4]triazolo[1,5-a]pyridin-2-yl]-acetamide], the IC50 was under 20 nM. The same measure for `Cc1c(-c2ccnn2-c2ccc(C#N)cc2)cn2nc(NS(C)(=O)=O)nc2c1-c1cccc(C(F)(F)F)c1` [Example 27, N-[6-[2-(4-Cyano-phenyl)-2H-pyrazol-3-yl]-7-methyl-8-(3-trifluoromethyl-phenyl)-[1,2,4]triazolo[1,5-a]pyridin-2-yl]-methanesulfonamide]: 20 to 100 nM; for `Cc1c(-c2ccnn2-c2ccc(C#N)cc2)cn2nc(NCCCN(C)C)nc2c1-c1cccc(C(F)(F)F)c1` [Example 28, 4-{5-[2-(3-Dimethylamino-propylamino)-7-methyl-8-(3-trifluoromethyl-phenyl)-[1,2,4]triazolo[1,5-a]pyridin-6-yl]-pyrazol-1-yl}-benzonitrile]: under 20 nM. Turning to `Cc1c(-c2ccnn2-c2ccc(C#N)cc2)cn2nc(NCCN(C)C)nc2c1-c1cccc(C(F)(F)F)c1` [Example 29, 4-{5-[2-(2-Dimethylamino-ethylamino)-7-methyl-8-(3-trifluoromethyl-phenyl)-[1,2,4]triazolo[1,5-a]pyridin-6-yl]-pyrazol-1-yl}-benzonitrile], the IC50 was 20 to 100 nM.

In the case of `Cc1c(-c2ccnn2-c2ccc(C#N)cc2)cn2nc(NCCCCN(C)C)nc2c1-c1cccc(C(F)(F)F)c1` [Example 30, 4-{5-[2-(4-Dimethylamino-butylamino)-7-methyl-8-(3-trifluoromethyl-phenyl)-[1,2,4]triazolo[1,5-a]pyridin-6-yl]-pyrazol-1-yl}-benzonitrile], the IC50 is under 20 nM. Take `COc1nc2c(-c3cccc(C(F)(F)F)c3)c(C)c(-c3ccnn3-c3ccc(C#N)cc3)cn2n1` [Example 31, 4-{5-[2-Methoxy-7-methyl-8-(3-trifluoromethyl-phenyl)-[1,2,4]triazolo[1,5-a]pyridin-6-yl]-pyrazol-1-yl}-benzonitrile]: the IC50 is 100 to 500 nM. The same measure for `Cc1c(-c2ccnn2-c2ccc(C#N)cc2)cn2nc(NCCC[N+](C)(C)C)nc2c1-c1cccc(C(F)(F)F)c1` [Example 32, {3-[6-[2-(4-Cyano-phenyl)-2H-pyrazol-3-yl]-7-methyl-8-(3-trifluoromethyl-phenyl)-[1,2,4]triazolo[1,5-a]pyridin-2-ylamino]-propyl}-trimethyl-ammonium benzenesulfonate]: under 20 nM. `Cc1c(-c2ccnn2-c2ccc(C#N)cc2)cn2nc(NCC[N+](C)(C)C)nc2c1-c1cccc(C(F)(F)F)c1` [Example 33, {3-[6-[2-(4-Cyano-phenyl)-2H-pyrazol-3-yl]-7-methyl-8-(3-trifluoromethyl-phenyl)-[1,2,4]triazolo[1,5-a]pyridin-2-ylamino]-ethyl}-trimethyl-ammonium benzenesulfonate]: the IC50 was under 20 nM. The same measure for `Cc1c(-c2ccnn2-c2ccc(C#N)cc2)cn2nc(NCCCC[N+](C)(C)C)nc2c1-c1cccc(C(F)(F)F)c1` [Example 34, {4-[6-[2-(4-Cyano-phenyl)-2H-pyrazol-3-yl]-7-methyl-8-(3-trifluoromethyl-phenyl)-[1,2,4]triazolo[1,5-a]pyridin-2-ylamino]-butyl}-trimethyl-ammonium formate]: under 20 nM; for `CCOC(=O)Nc1nc2c(-c3cccc(C(F)(F)F)c3)c(C)c(-c3ccnn3-c3ccc(C#N)cc3)cn2n1` [Example 35, [6-[2-(4-Cyano-phenyl)-2H-pyrazol-3-yl]-7-methyl-8-(3-trifluoromethyl-phenyl)-[1,2,4]triazolo[1,5-a]pyridin-2-yl]-carbamic acid ethyl ester]: under 20 nM. The same measure for `COCCOC(=O)Nc1nc2c(-c3cccc(C(F)(F)F)c3)c(C)c(-c3ccnn3-c3ccc(C#N)cc3)cn2n1` [Example 36, [6-[2-(4-Cyano-phenyl)-2H-pyrazol-3-yl]-7-methyl-8-(3-trifluoromethyl-phenyl)-[1,2,4]triazolo[1,5-a]pyridin-2-yl]-carbamic acid 2-methoxyethyl ester]: under 20 nM; for `Cc1c(-c2ccnn2-c2ccc(C#N)cc2)cn2nc(NC(=O)OCCC[N+](C)(C)C)nc2c1-c1cccc(C(F)(F)F)c1` [Example 37, {3-[6-[2-(4-Cyano-phenyl)-2H-pyrazol-3-yl]-7-methyl-8-(3-trifluoromethyl-phenyl)-[1,2,4]triazolo[1,5-a]pyridin-2-ylcarbamoyloxy]-propyl}-trimethyl-ammonium formate]: under 20 nM. The same measure for `Cc1c(-c2ccnn2-c2ccc(C#N)cc2)cn2nc(NC(=O)NCCC[N+](C)(C)C)nc2c1-c1cccc(C(F)(F)F)c1` [Example 38, (3-{3-[6-[2-(4-Cyano-phenyl)-2H-pyrazol-3-yl]-7-methyl-8-(3-trifluoromethyl-phenyl)-[1,2,4]triazolo[1,5-a]pyridin-2-yl]-ureido}-propyl)-trimethyl-ammonium formate]: under 20 nM.

In the case of `CC(=O)Nc1nc2c(-c3cccc(C(F)(F)F)c3)c(C)c(-c3ncnn3-c3ccc(C#N)cc3)cn2n1` [Example 39, N-[6-[2-(4-Cyano-phenyl)-2H-[1,2,4]triazol-3-yl]-7-methyl-8-(3-trifluoromethyl-phenyl)-[1,2,4]triazolo[1,5-a]pyridin-2-yl]-acetamide], the IC50 is under 20 nM. Turning to `Cc1c(-c2ccnn2-c2ccc(C#N)cc2S(C)(=O)=O)cn2nc(N)nc2c1-c1cccc(C(F)(F)F)c1` [Example 40, 4-{5-[2-Amino-7-methyl-8-(3-trifluoromethyl-phenyl)-[1,2,4]triazolo[1,5-a]pyridin-6-yl]pyrazol-1-yl}-3-methanesulfonyl-benzonitrile], the IC50 is under 20 nM. The same measure for `CC(=O)Nc1nc2c(-c3cccc(C(F)(F)F)c3)c(C)c(-c3ccnn3-c3ccc(C#N)cc3F)cn2n1` [Example 41, N-[6-[2-(4-Cyano-2-fluoro-phenyl)-2H-pyrazol-3-yl]-7-methyl-8-(3-trifluoromethyl-phenyl)-[1,2,4]triazolo[1,5-a]pyridin-2-yl]-acetamide]: under 20 nM.

As to `CC(=O)Nc1nc2c(-c3cccc(C(F)(F)F)c3)c(C)c(-c3c(C)cnn3-c3ccc(C#N)cc3)cn2n1` [Example 42, N-[6-[2-(4-Cyano-phenyl)-4-methyl-2H-pyrazol-3-yl]-7-methyl-8-(3-trifluoromethyl-phenyl)-[1,2,4]triazolo[1,5-a]pyridin-2-yl]-acetamide], the IC50 is under 20 nM.

For the compound `CC(=O)Nc1nc2c(-c3cccc(C(F)(F)F)c3)c(C)c(-c3ccccc3-c3ccc(C#N)cc3)cn2n1` [Example 43], the IC50 is under 20 nM. The same measure for `CC(=O)Nc1nc2c(-c3cccc(OC(F)(F)F)c3)c(C)c(-c3ccnn3-c3ccc(C#N)cc3)cn2n1` [Example 44, N-[6-[2-(4-Cyano-phenyl)-2H-pyrazol-3-yl]-7-methyl-8-(3-trifluoromethoxy-phenyl)-[1,2,4]triazolo[1,5-a]pyridin-2-yl]-acetamide]: 20 to 100 nM. The same measure for `Cc1c(-c2ccnn2-c2ccc(C#N)cc2)cn2nc(NC(=O)CC[S+](C)[O-])nc2c1-c1cccc(C(F)(F)F)c1` (stereo not drawn) [Example 45, N-[6-[2-(4-Cyano-phenyl)-2H-pyrazol-3-yl]-7-methyl-8-(3-trifluoromethyl-phenyl)[1,2,4]triazolo[1,5-a]pyridin-2-yl]-3-methanesulfinyl-propionamide]: under 20 nM. With `Cc1c(-c2ccnn2-c2ccc(C#N)cc2)cn2nc(NC(=O)CCS(C)(=O)=O)nc2c1-c1cccc(C(F)(F)F)c1` [Example 46, N-[6-[2-(4-Cyano-phenyl)-2H-pyrazol-3-yl]-7-methyl-8-(3-trifluoromethyl-phenyl)-[1,2,4]triazolo[1,5-a]pyridin-2-yl]-3-methanesulfonyl-propionamide], the IC50 is under 20 nM.

For `Cc1c(-c2ccnn2-c2ccc(C#N)cc2)cn2nc(NCCCS(C)(=O)=O)nc2c1-c1cccc(C(F)(F)F)c1` [Example 47, 4-{5-[2-(3-Methanesulfonyl-propylamino)-7-methyl-8-(3-trifluoromethyl-phenyl)-[1,2,4]triazolo[1,5-a]pyridin-6-yl]-pyrazol-1-yl}-benzonitrile], the IC50 is under 20 nM. `Cc1c(-c2ccnn2-c2ccc(C#N)cc2)cn2nc(NCCO)nc2c1-c1cccc(C(F)(F)F)c1` [Example 48, 4-{5-[2-(2-Hydroxy-ethylamino)-7-methyl-8-(3-trifluoromethyl-phenyl)-[1,2,4]triazolo[1,5-a]pyridin-6-yl]-pyrazol-1-yl}-benzonitrile]: the IC50 is under 20 nM.
